# Data: patent US20140249084A1, “PTH-CONTAINING THERAPEUTIC/PROPHYLACTIC AGENT FOR OSTEOPOROSIS, CHARACTERIZED IN THAT PTH IS ADMINISTERED ONCE A WEEK IN A UNIT DOSE OF 100 TO 200 UNITS” (ASAHI KASEI PHARMA CORPORATION, priority 2009, published 2014)
# Tests used:
# [1] = tested on: high-risk patients diagnosed with primary osteoporosis; experiment: New vertebral fractures (incl. multiple), Working Example 2 (200 units once a week vs placebo, 72 weeks); assay type: in vivo, human; conditions: for New vertebral fractures: Incidence (%) / New vertebral fractures: No. of subjects: 72 weeks; for No. with fractures: new vertebral fractures
# Text: The above patients also took two tablets of a calcium agent once a day after dinner. […] The preparation contained precipitated calcium carbonate, magnesium carbonate, cholecalciferol (vitamin D3), and the like as components and is marketed under the trade name New Calcichew (trademark) D3″ (sold by: Daiichi Sankyo Health Care, manufactured and sold by: Nitto Pharmaceutical Industries, Ltd.).
# The numbers of patients administered the test drug and control were 290 (also sometimes referred to as the test drug group in the working example) and 288 (also sometimes referred to as the control group in the working example), respectively. The total number administered was 578. However, the number in each group sometimes differs depending on the type of test and is expressed, for example, by (n=**) or the number evaluated, or the like.
# (§1) The incidence of bone fractures was checked by frontal and lateral x-rays of the fourth thoracic to the fourth lumbar spine taken at the start and every 24 weeks thereafter.
# Here, “multiple vertebral fractures” was defined as two or more new vertebral fractures. When the incidence of multiple vertebral fractures (number of cases) was compared in the test drug group (n=261) and control group (n=281) after 72 weeks of administration, it was 2.1% (6 cases) in the control group and 0.8% (2 cases) in the test drug group.
# [2] = tested on: high-risk patients diagnosed with primary osteoporosis; experiment: Lumbar spine bone density by DXA, Working Example 2; assay type: in vivo, human; conditions: 200 units once a week; for Change in bone density (%): patients taking glucocorticoid
# Description: For the bone density of the lumbar spine, the density of the second to fourth lumbar spine was measured at the start and every 24 weeks thereafter using dual-energy x-ray absorptiometry (DXA).
# [3] = in vivo
# Description: The incidence of adverse events was studied after administering the test drug to the a group of osteoporosis patients having normal renal function, a group of osteoporosis patients having mild renal dysfunction, and a group of osteoporosis patients having moderate renal dysfunction.
# [4] = tested on: high-risk patients diagnosed with primary osteoporosis; experiment: Vertebral fractures (new+worsening), Kaplan-Meier estimation, Working Example 2; assay type: in vivo, human; conditions: after 72 weeks; FAS; 200 units once a week
# Text: as §1
# The incidence of vertebral fractures (new±worsening) after 72 weeks by Kaplan-Meier estimation in the FAS of the fracture study was 3.5% in the PTH200 group and 16.3% in the P group. The incidence with 200 units of this drug was lower than in the placebo group (log rank test, p<0.0001). […] When the six-month vertebral fracture (new+worsening) incidence was compared between groups, the incidence of the PTH200 group was lower than that of the P group in all divisions consisting of within 24 weeks, 24 to 48 weeks, and 48 to 72 weeks.
# [5] = tested on: patients diagnosed with primary osteoporosis; experiment: Fractures at sites other than the vertebrae (roentgen films), Working Example 1; assay type: in vivo, human; conditions: fractures of sites other than the vertebrae
# Description: Both the 5 and 100 unit groups were administered two tablets of a calcium agent (containing 500 mg of precipitated calcium carbonate [200 mg as calcium] per tablet) once a day.
# The osteoporosis patients were classified as condition shown in Table 1 based on the bone fracture risk factors present, as in Non-patent Reference 13, and compared. High-risk patients were defined as having all three factors involving age, prevalent vertebral fractures, and bone density or bone atrophy; low-risk patients were defined as other than the above.
# [6] = in vivo; remark: listed apart in the source
# Description: The serum calcium was measured at the start, after 12 weeks, after 24 weeks, after 48 weeks, and after 72 weeks. Serum calcium standard value: 8.4 to 10.4 mg/dL. The standard concomitant drug (610 mg of calcium, 400 IU of vitamin D3, and 30 mg of magnesium) was taken once a day after dinner from the time of consent to the end of the trial.
# [7] = in vivo; remark: listed apart in the source
# Description: The Lumbar spine bone mineral density and occurrence of bone fractures were checked as bone assessments. For the Lumbar spine bone mineral density, the bone density of the second to fourth lumbar spine was measured at the start and every six months thereafter using dual-energy x-ray absorptiometry (DXA). For the frequency of bone fractures, x-rays were taken from the front and side of the fourth thoracic to the fifth lumbar spine at the start and every six months thereafter, and new vertebral fractures were assessed by comparison of the roentgen films at the start and at each point in time thereafter using the method of Genant et al. (Non-patent Reference 14) as a reference. In locations other than the vertebrae, fractures were evaluated by checking by roentgen films. Blood samples were also taken from all patients at the beginning and during administration, and the general laboratory test values, including the calcium concentration, were measured. The administration period in high-risk patients (DXA and new vertebral fractures were assessed collectively at the center; fractures of other than vertebrae were assessed by the investigator based on the roentgen films) was 85.1±20.8 weeks in the 5 unit group and 83.7±19.8 weeks in the 100 unit group. […] The administration period in low-risk patients was 72.7±19.4 weeks in the 5 unit group and 88.3±21.3 weeks in the 100 unit group.
# [8] = tested on: high-risk patients diagnosed with primary osteoporosis; experiment: CT geometry of the femur (multislice CT), Working Example 2; assay type: in vivo, human; conditions: 200 units once a week
# Description: For the CT geometry, the proximal part of the femur was measured at the start and after 48 and 72 weeks using multislice CT scan.
# The effects of the test drug on three parts of the femur (neck of the femur, trochanter, and shaft of the femur) were studied using ordinary CT scans.
# [9] = No. of fractures: Five or more, 200 units once a week
# [10] = No. of fractures: Four, 200 units once a week
# [11] = No. of fractures: One, 200 units once a week
# [12] = No. of fractures: Three, 200 units once a week
# [13] = No. of fractures: Two, 200 units once a week
# [14] = history of Alfacalcidol, 200 units once a week
# [15] = history of Calcitriol, 200 units once a week
# [16] = history of Calcium L-aspartate, 200 units once a week
# [17] = history of Calcium lactate, 200 units once a week
# [18] = history of Elcatonin, 200 units once a week
# [19] = history of Menatetrenone, 200 units once a week
# [20] = history of Raloxifene hydrochloride, 200 units once a week
# [21] = patients taking glucocorticoid, 200 units once a week
# [22] = two or more new vertebral fractures, after 72 weeks, 200 units once a week
substance,measurement,setting,value
teriparatide acetate,Occurrence of new vertebral fractures after 48 weeks,"[1]; 48 to 72 weeks division, 200 units once a week",no new vertebral fractures occurred after 48 weeks
same,"New vertebral fractures, No. with fractures","[1]; FAS, No. evaluated 261",7
same,Difference between PTH200 group and P group after 72 W (%),"[1]; FAS, incidence of new vertebral fractures after 72 W",11.4%
same,New vertebral fractures: Incidence (%),[1]; [9],0.0%
same,New vertebral fractures: No. of subjects,[1]; [9],0
same,New vertebral fractures: Incidence (%),[1]; [10],0.0%
same,New vertebral fractures: No. of subjects,[1]; [10],0
same,New vertebral fractures: Incidence (%),[1]; [11],1.9%
same,New vertebral fractures: No. of subjects,[1]; [11],5
same,New vertebral fractures: Incidence (%),[1]; [12],0.0%
same,New vertebral fractures: No. of subjects,[1]; [12],0
same,New vertebral fractures: Incidence (%),[1]; [13],0.8%
same,New vertebral fractures: No. of subjects,[1]; [13],2
same,"New vertebral fractures, No. with fractures","[1]; Time after administration >24 W-≦48 W, No. evaluated 219",2
same,"New vertebral fractures, No. with fractures","[1]; Time after administration >48 W-≦72 W, No. evaluated 206",0
same,"New vertebral fractures, No. with fractures","[1]; Time after administration ≦24 W, No. evaluated 261",6
same,Incidence of new vertebral fractures (%),"[1]; creatinine clearance at start Abnormal (<80), After 24 W, 200 units once a week",2.8%
same,Incidence of new vertebral fractures (%),"[1]; creatinine clearance at start Abnormal (<80), After 48 W, 200 units once a week",3.4%
same,Incidence of new vertebral fractures (%),"[1]; creatinine clearance at start Abnormal (<80), After 72 W, 200 units once a week",3.4%
same,Incidence of new vertebral fractures (%),"[1]; creatinine clearance at start Normal (≧80), After 24 W, 200 units once a week",0.0%
same,Incidence of new vertebral fractures (%),"[1]; creatinine clearance at start Normal (≧80), After 48 W, 200 units once a week",0.0%
same,Incidence of new vertebral fractures (%),"[1]; creatinine clearance at start Normal (≧80), After 72 W, 200 units once a week",0.0%
same,New vertebral fractures: No,[1]; [14],62
same,New vertebral fractures: Yes,[1]; [14],1
same,New vertebral fractures: No,[1]; [15],7
same,New vertebral fractures: Yes,[1]; [15],1
same,New vertebral fractures: No,[1]; [16],28
same,New vertebral fractures: Yes,[1]; [16],1
same,New vertebral fractures: No,[1]; [17],8
same,New vertebral fractures: Yes,[1]; [17],0
same,New vertebral fractures: No,[1]; [18],35
same,New vertebral fractures: Yes,[1]; [18],2
same,New vertebral fractures: No,[1]; [19],6
same,New vertebral fractures: Yes,[1]; [19],0
same,New vertebral fractures: No,[1]; [20],20
same,New vertebral fractures: Yes,[1]; [20],0
same,No. with fractures,"[1]; Complication (diabetes): No, 200 units once a week",7
same,No. with fractures,"[1]; Complication (diabetes): Yes, 200 units once a week",0
same,No. with fractures,"[1]; Complication (hyperlipidemia): No, 200 units once a week",4
same,No. with fractures,"[1]; Complication (hyperlipidemia): Yes, 200 units once a week",3
same,No. with fractures,"[1]; Complication (hypertension): No, 200 units once a week",3
same,No. with fractures,"[1]; Complication (hypertension): Yes, 200 units once a week",4
same,No. with fractures,"[1]; Prior osteoporosis treatment (no), 200 units once a week",4
same,No. with fractures,"[1]; Prior osteoporosis treatment (yes), 200 units once a week",3
same,No. with fractures,"[1]; creatinine clearance at start Abnormal (<80), 200 units once a week",6
same,No. with fractures,"[1]; creatinine clearance at start Normal (≧80), 200 units once a week",0
same,"Existence of new vertebral fractures, Fracture: no",[1]; [21],29
same,"Existence of new vertebral fractures, Fracture: yes",[1]; [21],0
same,Incidence of multiple vertebral fractures,[1]; [22],0.8%
same,Multiple vertebral fractures (number of cases),[1]; [22],2 cases
same,Percentage change in bone density (%),"[2]; 24 W, history of Alfacalcidol",3.11%
same,Percentage change in bone density (%),"[2]; 24 W, history of Calcitriol",3.50%
same,Percentage change in bone density (%),"[2]; 24 W, history of Calcium L-aspartate",3.78%
same,Percentage change in bone density (%),"[2]; 24 W, history of Calcium lactate",1.96%
same,Percentage change in bone density (%),"[2]; 24 W, history of Elcatonin",3.95%
same,Percentage change in bone density (%),"[2]; 24 W, history of Menatetrenone",2.70%
same,Percentage change in bone density (%),"[2]; 24 W, history of Raloxifene hydrochloride",1.77%
same,Change in bone density (%),[2]; 24 W,3.50%
same,Percentage change in bone density (%),"[2]; 48 W, history of Alfacalcidol",5.47%
same,Percentage change in bone density (%),"[2]; 48 W, history of Calcitriol",4.40%
same,Percentage change in bone density (%),"[2]; 48 W, history of Calcium L-aspartate",6.16%
same,Percentage change in bone density (%),"[2]; 48 W, history of Calcium lactate",3.45%
same,Percentage change in bone density (%),"[2]; 48 W, history of Elcatonin",3.59%
same,Percentage change in bone density (%),"[2]; 48 W, history of Menatetrenone",3.04%
same,Percentage change in bone density (%),"[2]; 48 W, history of Raloxifene hydrochloride",4.96%
same,Change in bone density (%),[2]; 48 W,5.97%
same,Percentage change in bone density (%),"[2]; 72 W, history of Alfacalcidol",6.47%
same,Percentage change in bone density (%),"[2]; 72 W, history of Calcitriol",6.38%
same,Percentage change in bone density (%),"[2]; 72 W, history of Calcium L-aspartate",5.85%
same,Percentage change in bone density (%),"[2]; 72 W, history of Calcium lactate",4.93%
same,Percentage change in bone density (%),"[2]; 72 W, history of Elcatonin",5.36%
same,Percentage change in bone density (%),"[2]; 72 W, history of Menatetrenone",4.32%
same,Percentage change in bone density (%),"[2]; 72 W, history of Raloxifene hydrochloride",4.59%
same,Change in bone density (%),[2]; 72 W,6.82%
same,Adverse events: No (%),[3],4.4%
same,"Adverse events: No, No. of cases",[3],2
same,Adverse events: Point estimate of the difference,[3],2.0
same,"Adverse events: Yes, No. of cases",[3],65
same,Incidence of vertebral fractures (new±worsening) by Kaplan-Meier estimation,[4],3.5%
same,No. with fractures (persons),"[5]; high-risk patients, 5 units once a week",6 persons
same,No. with fractures (persons),"[5]; high-risk patients, 100 units once a week",1 persons
same,No. with fractures (persons),"[5]; low-risk patients, 5 units once a week",1 persons
same,No. with fractures (persons),"[5]; low-risk patients, 100 units once a week",0 persons
same,"Corrected serum calcium, Max",[6],10.0 mg/dL
same,Manifestation of hypercalcemia or hypercalciuria,[6],No manifestation of hypercalcemia or hypercalciuria was found
same,Patients with serum calcium exceeding 11.0 mg/mL,[6],not even one patient
same,Safety in terms of the serum calcium across renal function groups,[6],equivalent safety in terms of the serum calcium in all groups
same,Hypercalcemia,[7],did not cause hypercalcemia at either dose
same,Tendency for the serum calcium to rise,[7],no tendency for the serum calcium to rise was seen
same,"Volume bone mineral density (cortical bone) [vBMD cortical], change from baseline after 48 weeks (%)",[8]; Neck of femur,−0.77%
same,"Volume bone mineral density (total) [vBMD total], change from baseline after 48 weeks (%)",[8]; Neck of femur,0.92%
same,"Volume bone mineral density (total) [vBMD total], change from baseline after 72 weeks (%)",[8]; Neck of femur,0.15%
same,"Volume bone mineral density (cortical bone) [vBMD cortical], change from baseline after 48 weeks (%)",[8]; Shaft of femur,0.59%
same,"Volume bone mineral density (cortical bone) [vBMD cortical], change from baseline after 72 weeks (%)",[8]; Shaft of femur,0.18%
same,"Maximum section modulus (SM (Z min)), change from baseline after 72 weeks (%)",[8]; Trochanter,3.20%
same,"Volume bone mineral density (cortical bone) [vBMD cortical], change from baseline after 48 weeks (%)",[8]; Trochanter,−0.49%
same,"Volume bone mineral density (total) [vBMD total], change from baseline after 72 weeks (%)",[8]; Trochanter,0.95%
